Assay results taken from paper PMC6458995, “MAP4K4 Inhibition Promotes Survival of Human Stem Cell-Derived Cardiomyocytes and Reduces Infarct Size In Vivo” (Cell Stem Cell, 2019).

Tests used:
Test in all cases: Dundee kinase panel
Type in all cases: biochemical
Conditions in all cases: for remaining activity at 1 µM: read-out: residual activity
[1] = molecular target: T1, ASK1 (Homo sapiens, UniProt Q99683)
T1 construct: lines 1-140) and Reaction Biology
T1 sequence (Q99683 1-1374): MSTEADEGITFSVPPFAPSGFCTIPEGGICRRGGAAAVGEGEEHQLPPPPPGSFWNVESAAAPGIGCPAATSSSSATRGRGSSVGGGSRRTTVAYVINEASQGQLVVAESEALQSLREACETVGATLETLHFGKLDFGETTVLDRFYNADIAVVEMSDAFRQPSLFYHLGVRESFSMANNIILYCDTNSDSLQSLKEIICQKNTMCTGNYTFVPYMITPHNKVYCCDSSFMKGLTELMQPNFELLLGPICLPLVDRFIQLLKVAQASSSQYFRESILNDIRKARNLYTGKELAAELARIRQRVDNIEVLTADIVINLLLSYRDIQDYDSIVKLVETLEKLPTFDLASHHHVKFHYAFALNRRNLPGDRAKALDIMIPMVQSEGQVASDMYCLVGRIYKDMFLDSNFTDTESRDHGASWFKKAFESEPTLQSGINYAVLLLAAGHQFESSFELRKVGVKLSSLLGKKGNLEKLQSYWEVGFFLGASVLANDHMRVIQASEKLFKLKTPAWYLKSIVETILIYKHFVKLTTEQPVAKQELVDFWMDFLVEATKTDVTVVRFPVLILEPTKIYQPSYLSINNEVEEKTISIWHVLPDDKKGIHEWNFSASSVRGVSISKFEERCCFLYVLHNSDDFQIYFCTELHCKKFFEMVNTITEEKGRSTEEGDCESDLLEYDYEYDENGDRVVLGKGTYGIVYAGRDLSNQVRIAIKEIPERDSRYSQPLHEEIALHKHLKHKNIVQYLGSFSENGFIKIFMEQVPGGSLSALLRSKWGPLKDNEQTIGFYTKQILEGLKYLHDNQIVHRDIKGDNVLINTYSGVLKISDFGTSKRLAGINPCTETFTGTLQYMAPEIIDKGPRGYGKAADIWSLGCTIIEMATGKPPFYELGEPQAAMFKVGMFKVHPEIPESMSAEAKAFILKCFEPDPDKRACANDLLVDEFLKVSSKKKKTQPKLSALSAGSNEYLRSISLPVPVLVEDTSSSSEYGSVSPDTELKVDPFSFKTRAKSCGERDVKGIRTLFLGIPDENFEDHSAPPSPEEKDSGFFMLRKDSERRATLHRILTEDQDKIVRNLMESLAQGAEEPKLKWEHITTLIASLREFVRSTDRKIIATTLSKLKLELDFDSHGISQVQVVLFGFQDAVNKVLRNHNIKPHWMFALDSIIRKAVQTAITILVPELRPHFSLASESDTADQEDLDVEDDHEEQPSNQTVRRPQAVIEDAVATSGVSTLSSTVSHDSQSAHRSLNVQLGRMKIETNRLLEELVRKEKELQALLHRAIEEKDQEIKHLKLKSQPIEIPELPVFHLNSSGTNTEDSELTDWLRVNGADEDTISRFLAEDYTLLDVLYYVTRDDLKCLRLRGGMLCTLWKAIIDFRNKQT
Method: (§1) Compounds were screened at 1 μM. For key hits, pIC50 values were then determined by HTRF as above. […] Stability in mouse and human liver microsomes was determined by Cyprotex.

[2] = molecular target: T2, CAMKKb (Homo sapiens, UniProt Q96RR4)
T2 construct: lines 1-140) and Reaction Biology
T2 sequence (Q96RR4 whole entry): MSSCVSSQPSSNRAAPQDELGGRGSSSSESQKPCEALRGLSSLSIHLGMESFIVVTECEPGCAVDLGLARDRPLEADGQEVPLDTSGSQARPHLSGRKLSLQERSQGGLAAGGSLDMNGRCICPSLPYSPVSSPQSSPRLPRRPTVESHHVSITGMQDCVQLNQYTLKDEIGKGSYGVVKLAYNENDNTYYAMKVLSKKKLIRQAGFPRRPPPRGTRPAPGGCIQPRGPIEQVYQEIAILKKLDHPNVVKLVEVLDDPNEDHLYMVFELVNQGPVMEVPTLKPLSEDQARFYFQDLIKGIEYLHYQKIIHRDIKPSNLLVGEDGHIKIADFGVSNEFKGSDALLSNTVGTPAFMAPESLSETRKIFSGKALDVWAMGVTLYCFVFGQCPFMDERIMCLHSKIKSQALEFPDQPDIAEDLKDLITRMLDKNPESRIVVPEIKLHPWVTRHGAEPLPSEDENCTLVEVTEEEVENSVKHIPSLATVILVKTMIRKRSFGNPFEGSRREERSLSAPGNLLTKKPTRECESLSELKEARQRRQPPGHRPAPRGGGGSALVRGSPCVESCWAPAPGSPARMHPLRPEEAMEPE
Method: as §1

[3] = molecular target: T3, EPH-B1 (Homo sapiens, UniProt P54762)
T3 construct: lines 1-140) and Reaction Biology
T3 sequence (P54762 18-984): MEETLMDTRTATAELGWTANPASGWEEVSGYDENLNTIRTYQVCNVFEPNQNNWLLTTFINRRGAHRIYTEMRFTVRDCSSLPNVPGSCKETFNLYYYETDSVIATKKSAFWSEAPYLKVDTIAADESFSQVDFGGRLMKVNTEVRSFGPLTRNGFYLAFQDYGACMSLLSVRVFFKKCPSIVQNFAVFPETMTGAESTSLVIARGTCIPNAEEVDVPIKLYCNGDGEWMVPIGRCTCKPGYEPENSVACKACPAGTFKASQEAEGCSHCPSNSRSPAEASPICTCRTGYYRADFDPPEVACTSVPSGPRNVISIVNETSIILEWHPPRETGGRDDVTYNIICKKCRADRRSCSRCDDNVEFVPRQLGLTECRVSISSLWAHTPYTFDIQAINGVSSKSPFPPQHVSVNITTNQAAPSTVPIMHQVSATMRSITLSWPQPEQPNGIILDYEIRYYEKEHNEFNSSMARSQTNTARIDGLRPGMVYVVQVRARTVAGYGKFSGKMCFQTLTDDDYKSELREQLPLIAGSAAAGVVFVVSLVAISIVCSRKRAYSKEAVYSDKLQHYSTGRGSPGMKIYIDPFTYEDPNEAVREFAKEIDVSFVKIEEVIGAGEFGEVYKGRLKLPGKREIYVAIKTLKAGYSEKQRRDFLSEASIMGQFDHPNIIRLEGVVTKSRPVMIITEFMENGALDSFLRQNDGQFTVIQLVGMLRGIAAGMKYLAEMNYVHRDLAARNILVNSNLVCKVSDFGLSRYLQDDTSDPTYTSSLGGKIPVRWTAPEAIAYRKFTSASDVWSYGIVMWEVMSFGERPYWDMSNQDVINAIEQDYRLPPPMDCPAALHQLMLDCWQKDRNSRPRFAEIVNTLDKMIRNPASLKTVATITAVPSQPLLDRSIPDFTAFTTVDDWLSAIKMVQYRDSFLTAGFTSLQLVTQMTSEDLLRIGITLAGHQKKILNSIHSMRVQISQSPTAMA
Method: as §1

[4] = molecular target: T4, MARK2 (Homo sapiens, UniProt Q7KZI7)
T4 construct: lines 1-140) and Reaction Biology
T4 sequence (Q7KZI7 whole entry): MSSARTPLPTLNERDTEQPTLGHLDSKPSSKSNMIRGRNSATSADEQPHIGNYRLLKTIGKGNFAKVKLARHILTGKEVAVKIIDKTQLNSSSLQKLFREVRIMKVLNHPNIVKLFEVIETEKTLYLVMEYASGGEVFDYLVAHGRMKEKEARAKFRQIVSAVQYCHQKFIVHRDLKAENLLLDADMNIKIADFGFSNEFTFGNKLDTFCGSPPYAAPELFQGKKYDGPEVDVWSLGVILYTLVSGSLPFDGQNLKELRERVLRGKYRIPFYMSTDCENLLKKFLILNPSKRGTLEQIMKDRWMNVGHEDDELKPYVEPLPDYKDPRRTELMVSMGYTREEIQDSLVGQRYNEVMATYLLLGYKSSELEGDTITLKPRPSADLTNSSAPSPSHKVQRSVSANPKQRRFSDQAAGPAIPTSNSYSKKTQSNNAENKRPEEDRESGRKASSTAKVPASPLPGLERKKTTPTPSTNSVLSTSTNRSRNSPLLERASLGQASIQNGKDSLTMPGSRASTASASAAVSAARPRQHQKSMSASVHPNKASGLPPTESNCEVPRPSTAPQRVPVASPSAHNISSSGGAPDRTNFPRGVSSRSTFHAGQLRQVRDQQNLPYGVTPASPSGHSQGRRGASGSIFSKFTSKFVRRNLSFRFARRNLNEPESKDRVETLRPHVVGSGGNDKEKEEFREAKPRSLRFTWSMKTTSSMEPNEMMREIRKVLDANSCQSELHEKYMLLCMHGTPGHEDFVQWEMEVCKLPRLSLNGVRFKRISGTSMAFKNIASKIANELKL
Method: as §1

Row | Compound | remaining activity at 1 µM [1] [%] | remaining activity at 1 µM [2] [%] | remaining activity at 1 µM [3] [%] | remaining activity at 1 µM [4] [%] | residual activity ([1]; 1 μM) [%] | residual activity ([2]; 1 μM) [%] | residual activity ([3]; 1 μM) [%] | residual activity ([4]; 1 μM) [%]
1 | COCCOc1ccc(-c2cn(-c3ccccc3)c3nc[nH]c(=O)c23)cc1 [DMX-5804, 5-[4-(2-methoxy-ethoxy)-phenyl]-7-phenyl-3,7-dihydro-pyrrolo[2,3-d]pyrimidin-4-one] | 108 | 77 | 108 | 98 | – | – | – | –
2 | Oc1ncnc2c1c(-c1ccccc1)cn2-c1ccccc1 [F1386-0303, 5,7-diphenyl-7H-pyrrolo[2,3-d]pyrimidin-4-ol] | 93 | 98 | 86 | 98 | – | – | – | –
3 | Nc1ncc(C(=O)NC2CN(C(=O)C3CC3)C2)c2ccc(-c3cccc(F)c3)nc12 [GNE-495] | – | – | – | – | 84 | 105 | 99 | 42
4 | O=C1Nc2ccc(I)cc2/C1=C/c1cc(Br)c(O)c(Br)c1 [GW5074] | 56 | 19 | 94 | 49 | – | – | – | –
5 | O=C1Cc2c([nH]c3ccc(Br)cc23)-c2ccccc2N1 [Kenpaullone] | 68 | 72 | 94 | 35 | – | – | – | –
